Laboratory results published in patent publication US8183364B2, “Substituted porphyrins” (Duke University, priority 2004, dated 2012).
Where two headings read alike, the source gives them in different places.

Key:
[1] = test system: SOD-deficient JI132 E. coli; assay: Aerobic growth of SOD-deficient E. coli; format: cell-based; settings: for facilitation of aerobic growth of SOD-deficient E. coli, dependence on concentration: 1-30 μM
Description: (§1) Aerobic growth of E. coli. Bacterial strains of E. coli used were wild type AB1157 (F-thr-1 leu-1 proA2 his-4 argE3 thr-1 lacY1 galK2 rpsL supE44 ara-14 xyl-15 mtl-1 tsx-33) and SOD-deficient JI132 (same as AB1157 plus (sodA::mudPR13)25 (sodB-kan)1-Δ2. Culture media were prepared as follows. M9 medium: 6 g/L Na2HPO4, 3 g/L KH2PO4, 0.5 g/L NaCl, 1 g/L NH4Cl, 2 mM MgSO4, 0.1 mM CaCl2, adjusted to pH 7.4 with NaOH, and supplemented with 0.2% glucose, 3 mg/L each of D-panthotenic acid and thiamine. M9CA medium contained M9 medium plus 0.2% casamino acids. 5-amino acid (5AA) minimal medium contained M9 medium plus 0.5 mM each of threonine, leucine, histidine, proline and arginine (Faulkner et al, J. Biocl. Chem. 269:23471 (1994)).
(§2) AB 1157 and 31132 were precultured overnight aerobically in M9CA medium at 37° C. and were then diluted to 3×10^7 cells/mL into 5 mL M9CA medium. JI132 was precultured in the presence of 20 μg/mL chloramphenicol and 500 μg/mL kanamycin. When the cells are transferred from M9CA medium to 5AA minimal medium cultures were first centrifuged and washed twice with the 5AA medium before final dilution in it. The centrifugation was conducted at room temperature to avoid temperature shocks. Cultures without and with Mn porphyrins (0.1 to 30 μM) were grown aerobically in 5 mL volume in test tubes in a thermostated orbital shaker (45° angle, 200 rpm) at 37° C.). Rates of growth were followed turbidimetrically at 700 nm to minimize interference from the absorbance of test compounds.

[2] = Mn(III)/Mn(II); 0.1 M NaCl, 0.05 M phosphate buffer, pH 7.8; data from Batinic-Haberle et al 2002; cited from earlier work
[3] = pH 7.8, (22 ± 1) °C; data from Batinic-Haberle et al 2002 (MnTE-2-PyP: Inorg. Chem. 40:726 (2001)); cited from earlier work
[4] = data from Batinic-Haberle et al 2002, cited from earlier work; for Rf (compound path/solvent path), metal-free porphyrin (in parenthesis): metal-free ligand of the named Mn porphyrin; for Rf (compound path/solvent path), Mn complex: silica gel TLC, KNO3-saturated H2O/H2O/acetonitrile = 1/1/8
[5] = Electrochemistry: cyclic voltammetry of the Mn(III)/Mn(II) redox couple; format: physicochemical
Description: Electrochemistry. Measurements were performed on a CH Instruments Model 600 Voltammetric Analyzer (Spasojevic and Batinic-Haberle, Inorg. Chim. Acta. 317:230-242 (2001), Batinic-Haberle et al, J. Biol. Chem. 273:24521-24528 (1998), Batinic-Haberle et al, Inorg. Chem. 38:4011-4022 (1999)). A three-electrode system in a small volume cell (0.5 mL to 3 mL), with a 3 mm-diameter glassy carbon button working electrode (Bioanalytical Systems), plus the Ag/AgCl reference and Pt auxiliary electrodes was used. Argon-purged solutions contained 0.05 M phosphate buffer, pH 7.8, 0.1 M NaCl, and 0.5 mM metalloporphyrin. The scan rates were 0.01-0.5 V/s, typically 0.1 V/s. The potentials were standardized against the potassium ferrocyanide/ferricyanide (Kolthof and Tomsicek, J. Phys. Chem. 39:945 (1935)) and/or against MnTE-2-PyP^5+ (Spasojevic and Batinic-Haberle, Inorg. Chim. Acta. 317:230-242 (2001), Batinic-Haberle et al, J. Biol. Chem. 273:24521-24528 (1998), Batinic-Haberle et al, Inorg. Chem. 38:4011-4022 (1999)).
Electrochemistry. All cyclic voltammograms, ascribed to the Mn(III)/Mn(II) redox couple, are reversible. The E1/2 of di-ortho ethylimidazolylporphyrin, MnTDE-2-ImP^5+ is 118 mV more positive than of ortho ethylpyridylporphyrin, MnTE-2-PyP^5+ (+228 mV vs NHE), as a consequence of charge delocalization. A similar difference of 114 mV was seen between their methoxyethyl analogues. Mn porphyrins bearing N-pyridyl substituents of the same length, MnTnBu-PyP^5+ and MnTMOE-2-PyP^5+, have nearly identical E1/2 of +254 and +251 mV vs NHE, which is 26 and 23 mV higher than that of MnTE-PyP^5+.

[6] = Catalysis of O2.^− dismutation by pulse radiolysis; format: biochemical; settings: pulse radiolysis, pH 7.8, (22 ± 1) °C; kcat ±30%
Description: Catalysis of O2.^− dismutation. The catalytic rate constants for the O2.^− dismutation were determined by pulse radiolysis in 0.05 M phosphate buffer (pH 7.8) at (22±1)° C. as previously described (Batinic-Haberle et al, Inorg. Chem. 40:726 (2001)). In the present study 10 mM formate was used as a scavenger for H. atoms and .OH radicals, which leads first to production of CO2.^− radicals and then to O2.^− radicals. This system is known to lead to conversion of all primary radicals of water radiolysis into O2.^−.
Catalysis of O2.^− dismutation. Pulse radiolysis was used to assess the SOD-like activities of the Mn porphyrins studied. The initial concentration of O2.^− produced by the pulse was about 27 μM, and the concentration of the Mn porphyrin was between 0.5 and 5 μM. The dismutation of O2.^− was followed at 280 nm. The catalytic rate constant was determined from the linear dependence of kobs upon the concentration of the catalyst (Batinic-Haberle et al, Inorg. Chem. 40:726 (2001)). All the new compounds have high O2.^− dismuting ability. The magnitude of the catalysis is due to the interplay of the electron-withdrawing effects of quaternized ortho pyridyl or di-ortho imidazolyl groups, favorable electrostatics, and the solvation of the metal site.

[7] = Thin-layer chromatography on silica gel (retention factor Rf, lipophilicity); format: physicochemical; settings: silica gel TLC, KNO3-saturated H2O/H2O/acetonitrile = 1/1/8
Description: Uv/vis spectra of porphyrin ligands and their Mn complexes were taken on a Shimadzu UV-2501-PC spectrophotometer at 25° C. Thin-layer chromatography of ligands and Mn complexes was done using silica gel plates with KNO3satH2O/H2O/acetonitrile=1/1/8.
Thin-layer chromatography. All new methoxyporphyrins are more lipophilic than MnTE-2-PyP^5+ and MnTDE-2-ImP^5+.

[8] = Oxidative degradation in the presence of ascorbic acid under aerobic conditions; format: physicochemical; settings: pH 7.8 (0.05 M tris buffer)
Description: Under these conditions porphyrins underwent oxidative degradation. As previously observed (Batinic-Haberle et al, J. Chem. Soc., Dalton Trans., pgs. 2689-2696 (2002)), those porphyrins that are of more positive E1/2 are stabilized in +2 oxidation state and are less prone to oxidative damage. Accordingly, 27% and 24% of MnTE-2-PyP^5+ and MnTMOE-2-PyP^5+ undergo degradation within 2 hours, but only 2% of MnTM,MOE-2-ImP^5+ and MnTDMOE-2-ImP^5+ and 3% of MnTDE-2-ImP^5+.

[9] = Kinetic salt effect on O2.^− dismutation by cytochrome c assay; format: biochemical
Description: Kinetic salt effect. The dependence of the catalytic rate constant for the O2.^− dismutation upon ionic strength was determined by cytochrome c assay (McCord and Fridovich, J. Biol. Chem. 244:6049 (1969)) in 0.05 M phosphate buffer, pH 7.8 with NaCl ranging from 0 to 0.4 M. In doing this, the effect of ionic strength on the rate of the O2.^−/cytochrome c reaction was corrected for.
Kinetic salt effect. The effect of the ionic strength (μ) on the catalytic rate constant was assessed using eq which is based on Debye-Huckel relation (Hambright et al, J. Porphyrins Phthalocyanines 7:139-146 (2003)) for the effect of the ionic strength of the solution on the activity coefficient of an ion. log k=log kref+2AzAzBμ^1/2/(1+μ^1/2) The k is the rate constant at any given ionic strength, while kref is the rate constant at μ=0. The A is a collection of physical constants with a value of 0.509 and zA and zB are the charges of the reacting species. The equation predicts a linear plot of log k vs μ^1/2/(1+μ^1/2). Eq assumes a coefficient of 1.0 (βai) for μ^1/2 in the denominator, i.e., the distance of the closest approach, ai to be 3 A and β is a physical constant, […]. It is doubtful whether great significance can be attributed to the ai, thus to the product zAzB (Hambright et al, J. Porphyrins Phthalocyanines 7:139-146 (2003)), especially so in the light of the bulkiness, high charge and solvation shell of the metalloporphyrins. Accounting for the mono- and diprotonated phosphates as the major species at pH 7.8 (pKa=7.2), and the concentration of the NaCl, the ionic strength was calculated using equation μ=½ Σ mizi^2 where mi is the molality and zi the charge of the given ion.
The slopes of the plots are −6.48 (MnTE-2-PyP^5+), −7.02 (MnTMOE-2-PyP^5+), −7.38 (MnTDMOE-2-ImP^5+), and −4.15 (MnTnBu-2-PyP^5+). As expected (Hambright et al, J. Porphyrins Phthalocyanines 7:139-146 (2003)), when the reactants are ions of opposite charges, the higher the ionic strength of the solution the lower the rate constants, i.e. the slopes are negative. The slopes of the plots indicate clearly the impact of the local dielectric constant on the kcat. The kcat of the most lipophilic compound, MnTnBu-2-PyP^5+ is 40% less sensitive to the changes in ionic strength of the solution than is the kcat of its methoxyethyl analogue, MnTMOE-2-PyP^5+.

wild type AB1157 E. coli = assay: Aerobic growth of wild type E. coli (toxicity); format: cell-based
Description: as §1, §2

| Structure (SMILES) | aerobic growth of SOD-deficient E. coli ([1]; 5AA minimal medium, 25 μM) | protection of SOD-deficient E. coli ([1]; M9CA medium, 1 μM) | protection of SOD-deficient E. coli ([1]; M9CA medium, 30 μM) | facilitation of aerobic growth of SOD-deficient E. coli, dependence on concentration ([1]; M9CA medium) | Metal-centered redox potential E1/2 [2] | log kcat for O2^− dismutation [3] | Rf (compound path/solvent path), metal-free porphyrin (in parenthesis) [4] | Rf (compound path/solvent path), Mn complex [4] | further results |
| --- | --- | --- | --- | --- | --- | --- | --- | --- | --- |
| CCC[n+]1ccccc1-c1c2nc(c(-c3cccc[n+]3CCC)c3ccc([n-]3)c(-c3cccc[n+]3CCC)c3nc(c(-c4cccc[n+]4CCC)c4ccc1[n-]4)C=C3)C=C2.[Mn+3] [MnTnPr-2-PyP^5+] | most effective | low protection | either much higher or near full protection | concentration-dependent manner | +238 mV vs NHE | 7.38 | 0.31 | 0.20 | – |
| COCCn1cc[n+](C)c1-c1c2nc(c(-c3n(CCOC)cc[n+]3C)c3ccc([n-]3)c(-c3n(CCOC)cc[n+]3C)c3nc(c(-c4n(CCOC)cc[n+]4C)c4ccc1[n-]4)C=C3)C=C2.[Mn+3] [MnTM,MOE-2-ImP^5+, Mn(III) tetrakis 5,10,15,20-tetrakis[N-methyl-N′-(2-methoxyethyl)imidazolium-2-yl]porphyrin] | – | – | – | – | – | – | – | – | Metal-centered redox potential E1/2 ([5]; Mn(III)/Mn(II), 0.1 M NaCl, 0.05 M phosphate buffer, pH 7.8, ±3 mV): +356 mV vs NHE; log kcat for O2^− dismutation [6]: 7.98; Rf (compound path/solvent path), metal-free porphyrin (in parenthesis) ([7]; metal-free ligand of the named Mn porphyrin): 0.17; Rf (compound path/solvent path), Mn complex [7]: 0.15; degradation within 2 hours [8]: 2% |
| C[n+]1ccccc1-c1c2nc(c(-c3cccc[n+]3C)c3ccc([n-]3)c(-c3cccc[n+]3C)c3nc(c(-c4cccc[n+]4C)c4ccc1[n-]4)C=C3)C=C2.[Mn+3] [MnTM-2-PyP^5+] | not far behind | low protection | either much higher or near full protection | concentration-dependent manner | +220 mV vs NHE | 7.79 | 0.13 | 0.09 | – |
| CCCC[n+]1ccccc1-c1c2nc(c(-c3cccc[n+]3CCCC)c3ccc([n-]3)c(-c3cccc[n+]3CCCC)c3nc(c(-c4cccc[n+]4CCCC)c4ccc1[n-]4)C=C3)C=C2.[Mn+3] [MnTnBu-2-PyP^5+] | – | – | – | – | +254 mV vs NHE | 7.25 | 0.46 | 0.33 | E1/2 more positive / higher than that of MnTE-2-PyP^5+ ([5]; difference vs MnTE-2-PyP^5+ (+228 mV vs NHE)): 26 mV; slope of log kcat vs μ^1/2/(1+μ^1/2) ([9]; 0.05 M phosphate buffer, pH 7.8, 0-0.4 M NaCl): −4.15; kcat less sensitive to changes in ionic strength than MnTMOE-2-PyP^5+ ([9]; vs MnTMOE-2-PyP^5+): 40%; aerobic growth of SOD-deficient E. coli ([1]; 5AA minimal medium, 3 μM): nearly as effective; aerobic growth of SOD-deficient E. coli ([1]; M9CA medium, 1 and 3 μM): less effective; aerobic growth of SOD-deficient E. coli ([1]; M9CA medium, 10 and 30 μM): most effective; toxicity to wild type E. coli (wild type AB1157 E. coli; M9CA medium, 30 μM (up to 30 μM)): only marginal toxicity; concentration at which toxicity on the parental (wild type) strain is exerted / becomes observable (wild type AB1157 E. coli; M9CA medium, range 0.1 to 30 μM): 30 µM |
| CCCCCCCC[n+]1ccccc1-c1c2nc(c(-c3cccc[n+]3CCCCCCCC)c3ccc([nH]3)c(-c3cccc[n+]3CCCCCCCC)c3nc(c(-c4cccc[n+]4CCCCCCCC)c4ccc1[nH]4)C=C3)C=C2 [metal-free n-octyl] | – | – | – | – | – | – | – | – | toxicity of metal-free vs Mn(III) complex (wild type AB1157 E. coli; separate experiment): equally toxic |
